From patent US20120328717A1, “PHARMACEUTICAL KIT FOR TREATING NEURONAL DAMAGES” (priority 2011, published 2012)

Experiments:
[1] = tested on: middle cerebral artery occlusion (MCAO) animal models with ischemic strokes; experiment: Evaluation of brain edema (brain water content, wet-dry method) after MCAO; assay type: in vivo, Sprague-Dawley rats; conditions: Experiment 1; 48 hr after MCAO and reperfusion; 45 mg/kg MgSO4 i.v., 6 mg/kg nimesulide i.p.
Description: In the present experiments, middle cerebral artery occlusion (MCAO) known in the art was performed on SD rats to establish animal models with ischemic strokes by using occluding intra-luminal suture. The process for performing MCAO is briefly described as follows. A segment of 4-O nylon with blunted tip was inserted through the right internal carotid artery to occlude blood flow of middle cerebral artery (MCA). Laser Doppler flowmeter was used to monitor changes of cerebral blood flows in the MCA territory. […] Anesthetic time was limited to 20 minutes to minimize the influence of isoflurane on the outcome of MCAO. After recovery from anesthesia, rats without body asymmetry were regarded as failed MCAO models and excluded from further experiments. After MCAO was established for 90 min, intra-luminal occluder was removed to re-perfuse the brain. […] Herein, cerebral edema was determined by measuring the brain water content with the wet-dry method after MCAO was established for 48 hr. […] The difference of water content in ipsilateral and contralateral hemisphere (Δ% of water content) 48 hr after ischemia-reperfusion injury was evaluated with the wet-dry method.

[2] = tested on: middle cerebral artery occlusion (MCAO) animal models with ischemic strokes; experiment: Evaluation of infarct volume by TTC staining after MCAO and reperfusion; assay type: in vivo, Sprague-Dawley rats; conditions: Experiment 1; MCAO 90 min, reperfusion 72 hr; single dose: 45 mg/kg MgSO4 i.v. after MCAO or 6 mg/kg nimesulide i.p. before reperfusion
Description: 150 Sprague-Dawley rats (SD rats) weighing 220-250 gm were purchased from the Laboratory Animal Center of National Chung Kung University. In the present experiments, middle cerebral artery occlusion (MCAO) known in the art was performed on SD rats to establish animal models with ischemic strokes by using occluding intra-luminal suture. The process for performing MCAO is briefly described as follows. A segment of 4-O nylon with blunted tip was inserted through the right internal carotid artery to occlude blood flow of middle cerebral artery (MCA). Laser Doppler flowmeter was used to monitor changes of cerebral blood flows in the MCA territory. […] Anesthetic time was limited to 20 minutes to minimize the influence of isoflurane on the outcome of MCAO. After recovery from anesthesia, rats without body asymmetry were regarded as failed MCAO models and excluded from further experiments. After MCAO was established for 90 min, intra-luminal occluder was removed to re-perfuse the brain. […] When SD rats in each group were treated with MCAO for 90 min and reperfusion for 72 hr, infarct volumes were evaluated by TTC staining.

`O=S(=O)([O-])[O-].[Mg+2]` [MgSO4] was tested, and the “post-ischemia brain edema (Δ% of water content, ipsilateral vs contralateral hemisphere) compared to SVe group” value [1] was “cannot be Observed” and the “infarct volume compared to SVe group” value [2] was “a decrease of infarct volume was not observed”.

`CS(=O)(=O)Nc1ccc([N+](=O)[O-])cc1Oc1ccccc1` [nimesulide, N-(4-Nitro-2-phenoxyphenyl)methane-sulfonamide] was tested, and the “post-ischemia brain edema (Δ% of water content, ipsilateral vs contralateral hemisphere) compared to SVe group” value [1] was “cannot be Observed” and the “infarct volume compared to SVe group” value [2] was “no neuro-protective effect”.
